Measured values: patent publication US10519177B2, “Heterocyclic compounds and uses thereof” (Plexxikon Inc., priority 2013, dated 2019)
Where two headings read alike, the source gives them in different places.

Key:
bromodomain = assay: at least one of the bromodomain cell assays of Example 57; format: cell-based; conditions: read-out: IC50 in at least one of the bromodomain cell assays
MV-4-11 cells = assay: Oncology cell growth assay MV-4-11 (CellTiter Glo); format: cell-based
From the text: Published bromodomain inhibitors JQ1 and iBET 151 have shown activity in variety of cancer cells such leukemia and lymphoma, multiple myeloma cells, NUT midline carcinoma and glioblastoma cells (Dawson M A et al. 2011; Delmore J E 2011; Chen Z et al. 2013; Filippakopoulos P et al. 2010; Mertz J A et al. 2011; Ott C J et al. 2012). In this study, we test compounds in different cancer cell lines. MV-4-11 and MOLM-13 are AML cell lines harboring a MLL-AF4 and MLL-AF9 translocation, respectively. MM.1S is a multiple myeloma cell line. SK-N-AS, IMR-32 and SK-N-BE(2) are neuroblastoma cell lines. IMR-32 and SK-N-BE(2) cell lines harbor MYCN amplifications.
MV-4-11, MM.1S, IMR-32, SK-N-AS and SK-N-BE(2) were obtained from ATCC (IL, USA) and MOLM-13 were purchased from DSMZ (Braunschweig, German). Cells are cultured as recommended by their sources. For growth inhibition studies 3000 cells are seeded in wells of a 96-well plate in 75 μL of culture media. After several hours, growth media containing compounds of formula (I) are added to the wells. Compound at a maximal concentration of 5 mM was serially diluted 1:3 for a total of 8 point titration with DMSO as a control. A 1 μL aliquot of each dilution point is added to 249 μL growth media and 75 μL is added to each well containing cells, providing 10 μM compound at the maximum concentration point. The final concentration of DMSO in all wells is 0.2%. Cells are incubated for 72 hours, and 25 μL of CellTiter Glo Reagent (Promega GA, USA) is added to each well. Plates are shaken for approximately 10 minutes and chemiluminescent signal is read on Tecan microplate reader. The measured luminescence correlates directly with cell number.
All data is normalized to the mean of eight DMSO high control wells on each plate. A four parameter curve fit of the following formula was then applied: Y=a+(b−a)/(1+(x/c)^d) Where ‘a’ is the minimum, ‘b’ is the maximum, ‘c’ is the pIC50 and ‘d’ is the Hill slope. […] Myc Reporter Assay

[1] = at least one of the bromodomain cell assays described in Example 57
[2] = Homo sapiens, MV4-11, 72 h; read-out: Cell activity (IC50 μM) MV-4-11 3d-Growth
[3] = Homo sapiens, MV4-11, 72 h, read-out: Cell activity (IC50 μM) MV-4-11 3d-Growth
[4] = Homo sapiens, MV4-11, 72 h; MV-4-11, 3d growth; read-out: Cell activity (IC50 μM) MV-4-11 3d-Growth

IC50 (bromodomain; [1])	SMILES	other results
< 10 µM	[2H]C([2H])(C1CCC(F)(F)CC1)n1cc(-c2cnn(CC(F)(F)F)c2)c2ncc(-c3c(C)noc3C)cc21 [P-0221, 4-[1-[dideuterio-(4,4-difluorocyclohexyl)methyl]-3-[1-(2,2,2-trifluoroethyl)pyrazol-4-yl]pyrrolo[3,2-b]pyridin-6-yl]-3,5-dimethyl-isoxazole]	IC50 (MV-4-11 cells; [2]): < 1 µM
	Cc1noc(C)c1-c1cnc2c(-c3ccc(C(=O)O)cc3)cn(C(C)c3ccccn3)c2c1 (stereo not shown) [P-0369, 4-[6-(3,5-dimethylisoxazol-4-yl)-1-[1-(2-pyridyl)ethyl]pyrrolo[3,2-b]pyridin-3-yl]benzoic acid]	IC50 (bromodomain): < 10 µM; IC50 (MV-4-11 cells; [3]): < 1 µM
	Cc1noc(C)c1-c1cnc2c(-c3ccc(C(=O)O)cc3)cn([C@H](C)c3ccccn3)c2c1 [P-0510, 4-[6-(3,5-dimethylisoxazol-4-yl)-1-[(1R)-1-(2-pyridyl)ethyl]pyrrolo[3,2-b]pyridin-3-yl]benzoic acid]	IC50 (bromodomain): < 10 µM; IC50 (MV-4-11 cells; [3]): < 1 µM
< 10 µM	[2H]c1c([2H])c([2H])c(C([2H])(n2cc(-c3cnn(CC(F)(F)F)c3)c3ncc(-c4c(C)noc4C)cc32)C([2H])([2H])[2H])c([2H])c1[2H] (stereo not shown) [P-0606]	IC50 (MV-4-11 cells; [4]): < 1 µM
< 10 µM	[2H]c1c([2H])c([2H])c(C([2H])(n2cc(-c3ccc(C(=O)OC)cc3)c3ncc(-c4c(C)noc4C)cc32)C([2H])([2H])[2H])c([2H])c1[2H] (stereo not shown) [P-0605, methyl 4-[6-(3,5-dimethylisoxazol-4-yl)-1-[1,2,2,2-tetradideuterio-1-(2,3,4,5,6-pentadeuteriophenyl)ethyl]pyrrolo[3,2-b]pyridin-3-yl]benzoate]	IC50 (MV-4-11 cells; [4]): < 1 µM
< 10 µM	COc1ccc(-c2cnc3c(-c4cnn(C(F)F)c4)cn(CC4CCC(F)(F)CC4)c3c2)cn1 [P-0358, 1-[(4,4-difluorocyclohexyl)methyl]-3-[1-(difluoromethyl)pyrazol-4-yl]-6-(6-methoxy-3-pyridyl)pyrrolo[3,2-b]pyridine]	IC50 (MV-4-11 cells; [2]): 10 to 200 µM
< 10 µM	Cc1noc(C)c1-c1cnc2c(-c3ccc(C(=O)O)cc3)cn(CC3CC4(CCC4)C3)c2c1 [P-0603, 4-[6-(3,5-dimethylisoxazol-4-yl)-1-(spiro[3.3]heptan-6-ylmethyl)pyrrolo[3,2-b]pyridin-3-yl]benzoic acid]	IC50 (MV-4-11 cells; [4]): < 1 µM
< 10 µM	Cc1noc(C)c1-c1cnc2c(-c3ccc(C(=O)O)cc3)cn(CC3CCCCO3)c2c1 (stereo not shown) [P-0768, 4-[6-(3,5-dimethylisoxazol-4-yl)-1-(tetrahydrpyran-2-ylmethyl)pyrrolo[3,2-b]pyridin-3-yl]benzoic acid]	
< 10 µM	Cc1noc(C)c1-c1cnc2c(-c3ccc(C(=O)OC(C)C)cc3)cn([C@@H](c3ccccc3)c3ccccn3)c2c1 [P-0717, isopropyl 4-[6-(3,5-dimethylisoxazol-4-yl)-1-[(S)-phenyl(2-pyridyl)methyl]pyrrolo[3,2-b]pyridin-3-yl]benzoate]	
< 10 µM	Cc1noc(C)c1-c1cnc2c(c1)c(C(c1ccccn1)c1ccccn1)cn2-c1ccc(CO)cc1 [P-0736, [4-[3-[bis(2-pyridyl)methyl]-5-(3,5-dimethylisoixazol-4-yl)pyrrolo[2,3-b]pyridin-1-yl]phenyl]methanol]	
< 10 µM	Cc1noc(C)c1-c1cnc2c(c1)c(C(c1ccccc1)c1ccccc1)cn2C(F)F [P-0739, 4-[3-benzhydryl-1-(difluoromethyl)pyrrolo[2,3-b]pyridin-5-yl]-3,5-dimethyl-isoxazole]	
< 10 µM	Cc1noc(C)c1-c1cnc2c(-c3cnn(C)c3)cn([C@H](c3ccccc3)c3ccccn3)c2c1 [P-0732, 3,5-dimethyl-4-[3-(1-methylpyrazol-4-yl)-1-[(R)-phenyl(2-pyridyl)methyl]pyrrolo[3,2-b]pyridin-6-yl]isoxazole]	
< 10 µM	Cc1ccc(-c2cn([C@@H](c3ccccn3)C3CCCC3)c3cc(-c4c(C)noc4C)cnc23)cc1 [P-0821, 4-[1-[(R)-cyclopentyl(2-pyridyl)methyl]-3-(p-tolyl)pyrrolo[3,2-b]pyridin-6-yl]-3,5-dimethyl-isoxazole]	
< 10 µM	Cc1nnn(C)c1-c1cnc2c(-c3ccc(C(C)(C)C)cc3)cn(CC3(F)CCC(F)(F)CC3)c2c1 [P-0809, 3-(4-tert-butylphenyl)-6-(3,5-dimethyltriazol-4-yl)-1-[(1,4,4-trifluorocyclohexyl)methyl]pyrrolo[3,2-b]pyridine]	
< 10 µM	Cc1noc(C)c1-c1cnc2c(c1)c(C(c1ccccc1)c1ccccc1)cn2-c1ccc(CO)cc1 [P-0741, [4-[3-benzhydryl-5-(3,5-dimethylisoxazol-4-yl)pyrrolo[2,3-b]pyridin-1-yl]phenyl]methanol]	
< 10 µM	Cc1ccc(-c2cn(CC3CC4CC4C3)c3cc(-c4c(C)noc4C)cnc23)cc1 (stereo not shown) [P-0795, 4-[1-(3-bicyclo[3.1.0]hexanylmethyl)-3-(p-tolyl)pyrrolo[3,2-b]pyridin-6-yl]-3,5-dimethyl-isoxazole]	
< 10 µM	Cc1noc(C)c1-c1cnc2c(-c3ccc(C#N)nc3)cn([C@H](c3ccccc3)c3ccccn3)c2c1 [P-0731, 5-[6-(3,5-dimethylisoxazol-4-yl)-1-[(R)-phenyl(2-pyridyl)methyl]pyrrolo[3,2-b]pyridin-3-yl]pyridine-2-carbonitrile]	
< 10 µM	Cc1ccc(-c2cn([C@@H](c3ccccc3)c3ccccn3)c3cc(-c4c(C)noc4C)ccc23)cc1 [P-0789, 3,5-dimethyl-4-[1-[(S)-phenyl(2-pyridyl)methyl]-3-(p-tolyl)indol-6-yl]isoxazole]	
< 10 µM	Cc1noc(C)c1-c1cnc2c(-c3ccc(CO)cc3)cn(CC3CCCCC3)c2c1 [P-0704, [4-[1-(cyclohexylmethyl)-6-(3,5-dimethylisoxazol-4-yl)pyrrolo[3,2-b]pyridin-3-yl]phenyl]methanol]	
< 10 µM	Cc1noc(C)c1-c1cnc2c(-c3ccc(C(=O)O)cc3)cn([C@@H](c3ccccn3)C3CCCC3)c2c1 [P-0820, 4-[1-[(R)-cyclopentyl(2-pyridyl)methyl]-6-(3,5-dimethylisoxazol-4-yl)pyrrolo[3,2-b]pyridin-3-yl]benzoic acid]	
< 10 µM	Cc1noc(C)c1-c1cnc2c(-c3ccc(C(C)(C)C)cc3)cn([C@H](c3ccccc3)c3ccccn3)c2c1 [P-0814, 4-[3-(4-tert-butylphenyl)-1-[(R)-phenyl(2-pyridyl)methyl]pyrrolo[3,2-b]pyridin-6-yl]-3,5-dimethyl-isoxazole]	
< 10 µM	Cc1ccc(-c2cn([C@H](c3ccccn3)C3CCCC3)c3cc(-c4c(C)noc4C)cnc23)cc1 [P-0822, 4-[1-[(S)-cyclopentyl(2-pyridyl)methyl]-3-(p-tolyl)pyrrolo[3,2-b]pyridin-6-yl]-3,5-dimethyl-isoxazole]	
< 10 µM	COC(=O)c1ccc(-c2cn(CC3CC4CC4C3)c3cc(-c4c(C)noc4C)cnc23)cc1 (stereo not shown) [P-0609, methyl 4-[1-(3-bicyclo[3.1.0]hexanylmethyl)-6-(3,5-dimethylisoxazol-4-yl)pyrrolo[3,2-b]pyridin-3-yl]benzoate]	
< 10 µM	CCOC(=O)c1ccc(-c2cn([C@@H](c3ccccc3)c3ccccn3)c3cc(-c4c(C)noc4C)cnc23)cc1 [P-0716, ethyl 4-[6-(3,5-dimethylisoxazol-4-yl)-1-[(S)-phenyl(2-pyridyl)methyl]pyrrolo[3,2-b]pyridin-3-yl]benzoate]	
< 10 µM	Cc1noc(C)c1-c1cnc2c(-c3ccc(C(C)(C)C(=O)O)cc3)cn(CC3(C)CCCCC3)c2c1 [P-0783, 2-[4-[6-(3,5-dimethylisoxazol-4-yl)-1-[(1-methylcyclohexyl)methyl]pyrrolo[3,2-b]pyridin-3-yl]phenyl]-2-methyl propanoic acid]	
< 10 µM	Cc1noc(C)c1-c1ccc2c(-c3ccc(C#N)nc3)cn([C@@H](c3ccccc3)c3ccccn3)c2c1 [P-0754, 5-[6-(3,5-dimethylisoxazol-4-yl)-1-[(S)-phenyl(2-pyridyl)methyl]indol-3-yl]pyridine-2-carbonitrile]	
< 10 µM	Cc1noc(C)c1-c1cnc2c(-c3ccc(C(=O)O)cc3)cn(CC3CCOCC3)c2c1 [P-0769, 4-[6-(3,5-dimethylisoxazol-4-yl)-1-(tetrahydropyran-4-ylmethyl)pyrrolo[3,2-b]pyridin-3-yl]benzoic acid]	
